These compounds were tested against human DGAT2 (hDGAT2) (Homo sapiens (Human), UniProt Q96PD7) (assay: DGAT2 Enzymatic Activity Assay). Settings: membrane prep of Sf-9 insect cells expressing hDGAT2; 13C18-triolein product by LC/MS/MS.
Chain of human DGAT2 (hDGAT2) (Q96PD7 whole entry): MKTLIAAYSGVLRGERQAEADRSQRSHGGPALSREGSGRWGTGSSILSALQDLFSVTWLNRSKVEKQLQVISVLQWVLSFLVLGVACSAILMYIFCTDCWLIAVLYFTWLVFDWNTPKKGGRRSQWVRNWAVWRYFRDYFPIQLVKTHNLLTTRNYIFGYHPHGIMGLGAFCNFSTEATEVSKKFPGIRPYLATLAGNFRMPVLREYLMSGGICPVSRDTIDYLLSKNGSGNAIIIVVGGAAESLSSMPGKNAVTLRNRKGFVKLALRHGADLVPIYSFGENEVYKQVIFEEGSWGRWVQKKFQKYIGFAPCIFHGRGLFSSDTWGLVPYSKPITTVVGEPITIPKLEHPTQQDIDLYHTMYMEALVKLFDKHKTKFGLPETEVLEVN
Assay type: biochemical
Procedure, shortened: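 Membranes from Sf-9 cells infected with untagged hDGAT2 baculovirus (8 ng/μL) incubated at rt in 100 mM Tris pH 7.0, 20 mM MgCl2, 5% ethanol with 25 μM diolein and 5 μM 13C oleoyl-CoA. 13C18-triolein product quantified by LC/MS/MS against 13C21-triolein internal standard; IC50 by 4-parameter fit.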
For `Cn1nccc1-c1nn(C2CCOCC2)c2cc(C(=O)N[C@@]3(C)CCS(=O)(=O)C3)cnc12` [Example 65, N-[(3S)-3-methyl-1,1-dioxo-thiolan-3-yl]-3-(2-methylpyrazol-3-yl)-1-tetrahydropyran-4-yl-pyrazolo[4,3-b]pyridine-6-carboxamide], the IC50 was 10000 nM.
In the case of `N[C@@H]1CCC[C@@H]1NC(=O)c1cnc2c(-c3cccc(OC(F)F)c3)cn(-c3ncc(F)cn3)c2c1` [Example 23, N-((1S,2R)-2-aminocyclopentyl)-3-(3-(difluoromethoxy)phenyl)-1-(5-fluoropyrimidin-2-yl)-1H-pyrrolo[3,2-b]pyridine-6-carboxamide], the IC50 is reported as 173 nM.
In the case of `CC(C)n1nc(-c2cccc(OC(F)F)c2)c2ncc(C(=O)N[C@]3(C#N)CCOC3)cc21` [Example 38, N-[(3S)-3-cyanotetrahydrofuran-3-yl]-3-[3-(difluoromethoxy)phenyl]-1-isopropyl-pyrazolo[4,3-b]pyridine-6-carboxamide], the IC50 is reported as 11 nM.
Compound `CC1(C)CC(n2nc(-c3cccc(OC(F)F)c3)c3ncc(C(=O)NC4(C)CS(=O)(=O)C4)cc32)C1` [Example 89, 3-(3-(difluoromethoxy)phenyl)-1-(3,3-dimethylcyclobutyl)-N-(3-methyl-1,1-dioxidothietan-3-yl)-1H-pyrazolo[4,3-b]pyridine-6-carboxamide] has an IC50 of 2.9 nM.
`CC(C)n1nc(-c2cccc(OC(F)F)c2)c2ncc(C(=O)NC(C)(C)C(C)(C)O)cc21` [Example 43, 3-(3-(difluoromethoxy)phenyl)-N-(3-hydroxy-2,3-dimethylbutan-2-yl)-1-isopropyl-1H-pyrazolo[4,3-b]pyridine-6-carboxamide] was tested, and the IC50 was 148 nM.
Compound `CCN1CCN(C(=O)c2cnc3c(-c4cncc(OC(F)F)c4)nn(C(C)C)c3c2)CC1` [Example 58, (3-(5-(difluoromethoxy)pyridin-3-yl)-1-isopropyl-1H-pyrazolo[4,3-b]pyridin-6-yl)(4-ethylpiperazin-1-yl)methanone] has an IC50 of over 1000 nM.
Work on `CC(C)n1nc(-c2cncc(OC(F)F)c2)c2ncc(C(=O)NC3(C)CS(=O)(=O)C3)cc21` [Example 95, 3-[5-(difluoromethoxy)-3-pyridyl]-1-isopropyl-N-(3-methyl-1,1-dioxo-thietan-3-yl)pyrazolo[4,3-b]pyridine-6-carboxamide] yielded an IC50 of 26 nM.
Work on `CC(C)n1nc(-c2cccc(OCC(F)F)c2)c2ncc(C(=O)NC3(C)CS(=O)(=O)C3)cc21` [Example 94, 3-[3-(2,2-difluoroethoxy)phenyl]-1-isopropyl-N-(3-methyl-1,1-dioxo-thietan-3-yl)pyrazolo[4,3-b]pyridine-6-carboxamide] yielded an IC50 of 7 nM.
`Cc1cc(C(=O)N[C@@]2(C)CCS(=O)(=O)C2)cc2c1c(-c1cccc(OC(F)F)c1)nn2C1CCOCC1` [Example 84, (S)-3-(3-(difluoromethoxy)phenyl)-4-methyl-N-(3-methyl-1,1-dioxidotetrahydrothiophen-3-yl)-1-(tetrahydro-2H-pyran-4-yl)-1H-indazole-6-carboxamide] was tested, and the IC50 was 13 nM.
`C[C@]1(NC(=O)c2cc3c(cn2)c(-c2cncc(OC(F)F)c2)nn3-c2ccc(F)cc2)CCS(=O)(=O)C1` [Example 6, (S)-3-(5-(difluoromethoxy)pyridin-3-yl)-1-(4-fluorophenyl)-N-(3-methyl-1,1-dioxidotetrahydrothiophen-3-yl)-1H-pyrazolo[4,3-c]pyridine-6-carboxamide] gave an IC50 of 89 nM.

Source: patent US20240059700A1, “NOVEL DIACYLGLYCERIDE O-ACYLTRANSFERASE 2 INHIBITORS” (Merck Sharp & Dohme LLC, priority 2020, published 2024)
